Data reported in a melting point compilation (Tetko et al.; mined from patent text by program, amines drawn as free bases though some values may be those of a salt).
Residues, ends and D or L forms follow the SMILES beside them. *: point of attachment. Boc = CC(C)(C)OC(=O)*

Compared with `CCOC(=O)n1c(C(=O)c2ccc(F)cc2)c(NC(C)=O)c2ccc(Cl)cc21`, `CC(=O)Nc1ccc(Cl)cc1C(=O)c1ccccc1` is lower in melting point: 196 to 198 °C for the first, 114 °C for the second.

First: Nc1ccc(N=Nc2ccc(N)c(C(F)(F)F)c2)c(C(F)(F)F)c1
Second: CS(=O)(=O)c1ccc(-c2cc(C(F)(F)F)nn2-c2ccc(CO)cc2)cc1
The melting point of the first is higher: 136 °C for the first, 129 to 133 °C for the second.

Compared with `COCCOC(=O)c1cc(-c2c(C(F)(F)F)nc(OC)[nH]c2=O)c(F)cc1Cl`, `CCCc1nn(C)c2c(=O)[nH]c(-c3cc(C(=O)O)ccc3OCC)nc12` is higher in melting point: 63 to 65 °C for the first, 285 to 288 °C for the second.

First: CCOC(=O)C1CCN(c2nc(C)nc3c2C(C)C(=O)N3c2c(C)cc(Br)cc2C)CC1 (stereo unspecified)
Second: Cc1ccc(C2c3c(C)c(N4CCN(c5ccc([N+](=O)[O-])cc5)CC4)c(C)c(C)c3OC2(C)C)cc1 (stereo unspecified)
The melting point of the first is lower: 159 to 161 °C for the first, 203 to 205 °C for the second.

First: CC[C@H]1[C@@H](O)[C@H](C)C(=O)N1c1ccc(C#N)c(OC)c1
Second: COc1ccc(CC(=O)O)cc1C(C)(C)C
The melting point of the first is lower: 78 to 81 °C for the first, 93 to 94 °C for the second.

Compared with `CCCN1NC(c2ccc(C)cc2)C2=C1C(=Cc1ccc(C)cc1)CSC2` (stereo unspecified), `CCN1c2ncc(CCc3ccncc3)cc2C(=O)N(C)c2ccc(I)nc21` is higher in melting point: 140 to 143 °C for the first, 174 °C for the second.

First: COC(=O)C(Cc1ccccc1)NC(=O)C(Cc1ccccc1)NC(=O)C(CC(N)=O)NC(=O)CNC(=O)OC(C)(C)C (stereo unspecified) (Boc-GNFF-OMe; configuration not given here)
Second: COC(=O)C[C@H](O)C[C@@H](O)C=Cc1c(-c2ccc(F)cc2)c(-c2ccc(F)cc2)c(C(=O)OCc2ccccc2)n1C(C)C
The melting point of the first is higher: 211 to 214 °C for the first, 105 to 107 °C for the second.

Compared with `Cc1c(SCCCCSCCn2c([N+](=O)[O-])cnc2C)ccnc1CO`, `COC(=O)c1cc(-c2ccc(SC)cc2)nn(CC(C)C)c1=O` is higher in melting point: 86 to 87 °C for the first, 90.4 to 91.4 °C for the second.

First: Cn1cc(-c2ncc(-c3ccc4cc(OCC#N)ccc4c3)o2)c2ccccc21
Second: O=C(O)Cc1c(C(=O)c2ccc(OCc3ccccc3)cc2)[nH]c2cc(Cl)ccc12
The melting point of the first is lower: 196 to 198 °C for the first, 220 to 222 °C for the second.

First: O=C(O)c1ccc(-c2ccc(NS(=O)(=O)c3cccnc3)cc2)[nH]c1=O
Second: O=C(Nc1ccc(C(=O)N2CCCc3ccccc32)cc1)c1ccc(CO)cc1
The melting point of the first is higher: greater than 260 °C for the first, 224 to 226 °C for the second.

First: CC(C)(O)CON1C(C)(C)CC(OC(=O)c2ccc3nn(-c4cc(C(C)(C)C)cc(C(C)(C)c5ccc(Cl)cc5)c4O)nc3c2)CC1(C)C
Second: Cc1noc(NS(=O)(=O)c2ccccc2-c2ccc(-c3ncco3)cc2CN(C(=O)C(C)C)C2CC2)c1C
The melting point of the first is lower: 80 to 90 °C for the first, 110 to 120 °C for the second.

First: NC(=O)c1ncn(C2OC(CO)C(O)C2O)c1C#Cc1ccccc1 (stereo unspecified)
Second: O=C(Nc1cccc(C(=O)O)c1)Oc1ccccc1
The melting point of the first is higher: 168 to 169 °C for the first, 131 to 133 °C for the second.

First: Cc1cc(CBr)nc2ccccc12
Second: CCN(c1nc(C)cc(C(=O)O)n1)c1ccc(C(C)C)cc1Br
The melting point of the first is lower: 92 °C for the first, 102 to 104 °C for the second.

First: CC(=O)NC[C@H]1CN(c2ccc(N3CCC(O)(C[N+](=O)[O-])CC3)c(F)c2)C(=O)O1
Second: C[C@]1(CN2CCC(Cc3ccc(OC(F)(F)F)cc3)CC2)Cn2cc([N+](=O)[O-])nc2O1
The melting point of the first is higher: 186 to 187 °C for the first, 111 to 112 °C for the second.

Compared with `COCCn1cc2c(C3C(=O)Nc4ccc(Br)cc43)nc(NCCN3CCOCC3)nc2n1` (stereo unspecified), `COc1ccc(NC(=O)c2ccc(Br)s2)cc1N1CCN(C)CC1` is lower in melting point: greater than 300 °C for the first, 114 to 115 °C for the second.

First: O=C(C1CCNCC1)N1CCN(c2cccc3[nH]ccc23)CC1
Second: COc1ccc2c(C(=O)N3CCC[C@H]3C(=O)O)cc3cc4c(cc3c2c1)OCO4
The melting point of the first is higher: greater than 240 °C for the first, 207 to 208 °C for the second.

First: CCc1cc(C(N)=O)nn1CC
Second: Cc1ncc(C(=O)N2CCCC2)s1
The melting point of the first is higher: 129 to 131 °C for the first, 71 to 72 °C for the second.

First: CSc1ccc(-c2ccccn2)c2c1C(=O)CC(C)(C)C2
Second: NC(=O)Cc1ccc(CCCOCCCCCCBr)cc1
The melting point of the first is higher: 152 to 154 °C for the first, 110 to 113 °C for the second.
